One test addresses T1, Glycine--tRNA ligase (Homo sapiens, UniProt P41250).
T1 sequence (P41250 whole entry): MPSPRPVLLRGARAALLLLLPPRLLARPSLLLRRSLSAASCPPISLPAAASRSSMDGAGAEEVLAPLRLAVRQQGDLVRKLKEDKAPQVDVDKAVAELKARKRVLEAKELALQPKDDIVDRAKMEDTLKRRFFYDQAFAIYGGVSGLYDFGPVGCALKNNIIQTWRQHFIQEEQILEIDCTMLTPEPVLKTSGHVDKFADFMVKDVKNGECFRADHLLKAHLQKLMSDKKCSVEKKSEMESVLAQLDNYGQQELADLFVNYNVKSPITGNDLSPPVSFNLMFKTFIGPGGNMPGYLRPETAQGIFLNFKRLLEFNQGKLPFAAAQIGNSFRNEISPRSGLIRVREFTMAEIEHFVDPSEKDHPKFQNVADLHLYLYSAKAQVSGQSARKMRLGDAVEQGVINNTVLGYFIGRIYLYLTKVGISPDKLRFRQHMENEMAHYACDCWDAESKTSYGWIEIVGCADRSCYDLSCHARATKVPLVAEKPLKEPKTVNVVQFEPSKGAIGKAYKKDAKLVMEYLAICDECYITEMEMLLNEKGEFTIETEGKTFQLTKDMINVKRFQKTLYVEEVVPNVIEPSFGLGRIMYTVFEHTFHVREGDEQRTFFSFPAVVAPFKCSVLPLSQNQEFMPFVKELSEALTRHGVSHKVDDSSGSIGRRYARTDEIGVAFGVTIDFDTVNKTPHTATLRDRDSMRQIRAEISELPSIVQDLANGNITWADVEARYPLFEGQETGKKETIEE

The target of a further test is Adenosine kinase (Homo sapiens, UniProt P55263).
Sequence of Adenosine kinase (P55263 whole entry): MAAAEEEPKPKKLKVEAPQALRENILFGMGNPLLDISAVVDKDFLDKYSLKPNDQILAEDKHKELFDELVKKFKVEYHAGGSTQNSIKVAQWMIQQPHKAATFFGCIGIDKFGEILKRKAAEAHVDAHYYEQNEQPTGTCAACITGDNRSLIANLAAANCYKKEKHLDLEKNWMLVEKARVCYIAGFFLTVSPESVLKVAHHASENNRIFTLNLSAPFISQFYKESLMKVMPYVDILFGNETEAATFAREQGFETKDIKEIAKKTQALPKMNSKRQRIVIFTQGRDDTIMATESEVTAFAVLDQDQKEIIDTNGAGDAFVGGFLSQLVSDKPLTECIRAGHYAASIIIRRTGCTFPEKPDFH
Test [1] deals with Fibroblast growth factor receptor 1 (Homo sapiens, UniProt P11362).
Sequence of Fibroblast growth factor receptor 1 (P11362 whole entry): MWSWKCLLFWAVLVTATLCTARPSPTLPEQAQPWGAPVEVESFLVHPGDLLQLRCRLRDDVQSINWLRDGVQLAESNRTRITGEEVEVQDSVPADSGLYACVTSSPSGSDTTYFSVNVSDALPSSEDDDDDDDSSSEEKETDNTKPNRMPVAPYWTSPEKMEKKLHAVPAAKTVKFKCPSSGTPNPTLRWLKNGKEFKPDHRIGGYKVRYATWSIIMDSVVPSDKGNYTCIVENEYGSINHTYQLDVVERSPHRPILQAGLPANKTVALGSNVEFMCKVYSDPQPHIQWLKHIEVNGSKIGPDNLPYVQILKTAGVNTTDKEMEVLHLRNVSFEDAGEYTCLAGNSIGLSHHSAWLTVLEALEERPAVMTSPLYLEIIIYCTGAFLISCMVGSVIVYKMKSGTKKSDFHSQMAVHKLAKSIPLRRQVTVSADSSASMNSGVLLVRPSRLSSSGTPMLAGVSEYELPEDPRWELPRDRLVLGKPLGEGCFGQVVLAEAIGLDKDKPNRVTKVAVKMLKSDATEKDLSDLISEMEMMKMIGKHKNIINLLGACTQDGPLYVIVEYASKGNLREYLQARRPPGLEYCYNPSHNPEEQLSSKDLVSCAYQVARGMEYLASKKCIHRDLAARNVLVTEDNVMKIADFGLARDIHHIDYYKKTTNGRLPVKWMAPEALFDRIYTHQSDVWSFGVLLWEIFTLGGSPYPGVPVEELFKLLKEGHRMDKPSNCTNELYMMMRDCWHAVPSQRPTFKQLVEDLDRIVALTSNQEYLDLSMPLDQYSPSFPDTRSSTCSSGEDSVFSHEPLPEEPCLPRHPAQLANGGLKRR
The target in a further test is Midasin (Homo sapiens, UniProt Q9NU22).
Test [2] addresses T2, Mitogen-activated protein kinase 15 (Homo sapiens, UniProt Q8TD08).
T2 sequence (Q8TD08 whole entry): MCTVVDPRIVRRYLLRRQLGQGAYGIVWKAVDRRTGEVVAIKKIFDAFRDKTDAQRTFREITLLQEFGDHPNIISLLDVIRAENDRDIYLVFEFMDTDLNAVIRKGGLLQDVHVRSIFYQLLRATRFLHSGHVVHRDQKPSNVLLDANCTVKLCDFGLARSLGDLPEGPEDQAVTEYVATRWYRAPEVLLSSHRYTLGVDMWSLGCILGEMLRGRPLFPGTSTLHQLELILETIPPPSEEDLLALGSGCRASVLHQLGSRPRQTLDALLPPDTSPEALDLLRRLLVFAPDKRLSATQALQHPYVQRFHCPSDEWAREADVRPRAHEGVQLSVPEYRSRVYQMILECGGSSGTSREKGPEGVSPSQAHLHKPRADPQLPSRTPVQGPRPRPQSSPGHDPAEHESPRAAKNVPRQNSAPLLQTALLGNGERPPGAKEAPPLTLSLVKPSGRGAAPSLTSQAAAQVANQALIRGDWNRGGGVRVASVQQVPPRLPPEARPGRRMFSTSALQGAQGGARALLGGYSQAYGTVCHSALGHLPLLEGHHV

Test [3] deals with Mitogen-activated protein kinase 3 (Homo sapiens, UniProt P27361).
Sequence of Mitogen-activated protein kinase 3 (P27361 whole entry): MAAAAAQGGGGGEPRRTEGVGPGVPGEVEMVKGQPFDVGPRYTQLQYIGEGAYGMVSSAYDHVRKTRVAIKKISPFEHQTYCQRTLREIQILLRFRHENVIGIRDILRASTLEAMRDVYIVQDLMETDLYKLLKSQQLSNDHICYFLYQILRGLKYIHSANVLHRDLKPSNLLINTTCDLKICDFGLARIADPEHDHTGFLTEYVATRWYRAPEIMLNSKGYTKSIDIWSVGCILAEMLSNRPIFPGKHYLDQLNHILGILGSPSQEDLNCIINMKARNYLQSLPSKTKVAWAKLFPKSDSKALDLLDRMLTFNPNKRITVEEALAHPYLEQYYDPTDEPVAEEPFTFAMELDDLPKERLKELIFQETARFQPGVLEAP
Test [4] has as its target T3, cGMP-dependent protein kinase 1 (Homo sapiens, UniProt Q13976).
T3 sequence (Q13976 whole entry): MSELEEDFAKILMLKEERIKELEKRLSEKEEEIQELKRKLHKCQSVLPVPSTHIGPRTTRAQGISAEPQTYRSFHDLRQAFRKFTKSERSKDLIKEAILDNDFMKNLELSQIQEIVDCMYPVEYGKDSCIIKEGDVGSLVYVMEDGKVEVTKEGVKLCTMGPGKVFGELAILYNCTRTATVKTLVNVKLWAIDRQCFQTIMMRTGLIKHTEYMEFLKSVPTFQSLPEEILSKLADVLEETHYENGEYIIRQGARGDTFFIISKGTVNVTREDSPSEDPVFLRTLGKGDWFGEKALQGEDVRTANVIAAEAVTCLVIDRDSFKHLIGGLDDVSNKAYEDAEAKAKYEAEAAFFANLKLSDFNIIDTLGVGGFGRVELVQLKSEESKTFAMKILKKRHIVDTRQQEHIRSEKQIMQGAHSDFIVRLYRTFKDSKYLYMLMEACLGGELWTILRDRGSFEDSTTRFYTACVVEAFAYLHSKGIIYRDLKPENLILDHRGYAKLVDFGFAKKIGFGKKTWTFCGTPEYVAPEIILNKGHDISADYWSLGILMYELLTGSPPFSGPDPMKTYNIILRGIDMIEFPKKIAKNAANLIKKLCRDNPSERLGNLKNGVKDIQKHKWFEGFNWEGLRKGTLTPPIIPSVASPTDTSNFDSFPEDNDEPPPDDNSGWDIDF

Test [5] addresses Dual specificity tyrosine-phosphorylation-regulated kinase 1A (Homo sapiens, UniProt Q13627).
Test [6] addresses Ribosomal protein S6 kinase alpha-1 (Homo sapiens, UniProt Q15418).
Test [7] concerns the target Serine/threonine-protein kinase B-raf (Homo sapiens, UniProt P15056).

Calls of active or inactive are those of the source. Where only a bound is given, the exact number is not on record here.
Also: in the data inactive means no Kd found up to 30 µM.

Sequence of Serine/threonine-protein kinase B-raf (P15056 whole entry): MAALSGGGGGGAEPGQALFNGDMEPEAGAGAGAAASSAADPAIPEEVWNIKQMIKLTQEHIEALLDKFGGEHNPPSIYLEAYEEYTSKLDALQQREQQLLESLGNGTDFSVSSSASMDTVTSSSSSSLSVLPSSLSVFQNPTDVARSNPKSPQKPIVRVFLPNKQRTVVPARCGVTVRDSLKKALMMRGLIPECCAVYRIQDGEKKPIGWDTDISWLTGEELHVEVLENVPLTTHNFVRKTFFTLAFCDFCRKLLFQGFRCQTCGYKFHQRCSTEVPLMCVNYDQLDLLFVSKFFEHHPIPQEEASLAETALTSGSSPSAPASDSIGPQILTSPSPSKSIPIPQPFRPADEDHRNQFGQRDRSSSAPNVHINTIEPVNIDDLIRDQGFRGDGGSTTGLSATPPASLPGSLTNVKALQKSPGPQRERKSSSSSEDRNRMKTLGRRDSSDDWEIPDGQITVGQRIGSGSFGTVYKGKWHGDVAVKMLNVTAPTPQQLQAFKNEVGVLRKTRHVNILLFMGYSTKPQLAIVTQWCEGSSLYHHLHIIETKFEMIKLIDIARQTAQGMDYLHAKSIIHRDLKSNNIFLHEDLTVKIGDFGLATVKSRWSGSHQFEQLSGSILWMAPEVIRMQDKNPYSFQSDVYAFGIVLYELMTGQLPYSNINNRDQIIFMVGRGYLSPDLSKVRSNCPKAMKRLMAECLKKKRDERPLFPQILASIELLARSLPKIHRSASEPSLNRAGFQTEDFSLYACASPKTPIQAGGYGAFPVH
Sequence of Ribosomal protein S6 kinase alpha-1 (Q15418 whole entry): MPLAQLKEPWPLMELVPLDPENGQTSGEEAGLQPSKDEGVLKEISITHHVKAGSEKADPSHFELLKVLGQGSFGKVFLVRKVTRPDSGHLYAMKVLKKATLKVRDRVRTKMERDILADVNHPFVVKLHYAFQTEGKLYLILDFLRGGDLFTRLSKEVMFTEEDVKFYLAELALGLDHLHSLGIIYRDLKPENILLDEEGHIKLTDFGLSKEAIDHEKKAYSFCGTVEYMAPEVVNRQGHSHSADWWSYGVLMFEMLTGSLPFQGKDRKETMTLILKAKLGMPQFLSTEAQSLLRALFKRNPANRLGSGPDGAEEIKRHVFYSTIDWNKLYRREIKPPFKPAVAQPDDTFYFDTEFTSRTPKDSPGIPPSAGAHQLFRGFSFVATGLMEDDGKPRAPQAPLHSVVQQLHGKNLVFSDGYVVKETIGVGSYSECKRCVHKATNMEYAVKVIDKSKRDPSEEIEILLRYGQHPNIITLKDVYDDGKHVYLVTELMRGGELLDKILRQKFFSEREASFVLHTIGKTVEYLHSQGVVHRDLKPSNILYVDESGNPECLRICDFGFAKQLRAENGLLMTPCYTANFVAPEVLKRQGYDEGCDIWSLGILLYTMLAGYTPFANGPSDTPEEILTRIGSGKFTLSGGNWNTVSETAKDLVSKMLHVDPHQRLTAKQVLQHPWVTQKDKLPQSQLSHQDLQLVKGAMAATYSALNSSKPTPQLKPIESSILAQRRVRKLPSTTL

For `COc1cc2ncnc(Nc3ccc(O)cc3)c2cc1OC` [WHI-P131], the Kd (at Glycine--tRNA ligase; at Adenosine kinase; in [1]; on Midasin; in test [2]; in [3]) was > 30 µM (inactive) throughout. Moreover, the Kd in test [4], in test [5] and in test [6] was > 30 µM (inactive) in each case.

As for `CNC(=O)c1ccc(Nc2ncc(C(F)(F)F)c(NCc3nccnc3N(C)S(C)(=O)=O)n2)cc1` [DEFACTINIB], the Kd (on Glycine--tRNA ligase; in [1]; on Midasin; in test [2]; in [3]; in [7]) was > 30 µM (inactive) each time. In addition, the Kd (usually the equilibrium constant for the complex coming apart) was > 30 µM (inactive) in [4], 9.12 µM (active) in test [5] and > 30 µM (inactive) in test [6].

Turning to `N#CCNC(=O)c1ccc(-c2ccnc(Nc3ccc(N4CCOCC4)cc3)n2)cc1` [MOMELOTINIB], the Kd (on Glycine--tRNA ligase; at Adenosine kinase; in test [1]; on Midasin; in test [2]; in [3]) was > 30 µM (inactive) throughout. Besides, the Kd in [7], in test [4] and in test [5] was > 30 µM (inactive) in each case.

As for `CC(C)(O)CC(=O)NCCn1ccc2ncnc(Nc3ccc(Oc4cccc(C(F)(F)F)c4)c(Cl)c3)c21` [TAK-285], the Kd (on Glycine--tRNA ligase; on Adenosine kinase; in test [1]; at Midasin; in [2]; in [3]) was > 30 µM (inactive) throughout. The Kd in test [4], in [5] and in [6] was > 30 µM (inactive) each time.

Regarding `Cc1cc(C(=O)Nc2cc(Oc3ccc4nc(NC(=O)C5CC5)cn4n3)ccc2C)n(C)n1` [TAK-593], the Kd (at Glycine--tRNA ligase; in [1]; at Midasin; in [2]; in test [3]; in test [7]) was > 30 µM (inactive) throughout. Besides, the Kd in test [4], in [5] and in test [6] was > 30 µM (inactive) in each case.

Consider `C=CCn1c(=O)c2cnc(Nc3ccc(N4CCN(C)CC4)cc3)nc2n1-c1cccc(C(C)(C)O)n1` [ADAVOSERTIB], for which the Kd was > 30 µM (inactive) on Glycine--tRNA ligase; 0.013 µM (active) on Adenosine kinase; > 30 µM (inactive) at Midasin; > 30 µM (inactive) in test [2]; > 30 µM (inactive) in [3]; > 30 µM (inactive) in [7]. Moreover, the Kd in test [4], in test [5] and in [6] was > 30 µM (inactive) each time.

Consider `CCOc1ccn(-c2ccc(F)cc2)c(=O)c1C(=O)Nc1ccc(Oc2ccnc(N)c2Cl)c(F)c1` [BMS-777607], for which the Kd (on Glycine--tRNA ligase; at Adenosine kinase; in test [1]; on Midasin; in [2]; in [3]) was > 30 µM (inactive) in each case. Also, the Kd in [4], in test [5] and in test [6] was > 30 µM (inactive) throughout.

Regarding `COc1cc2ncnc3c2cc1OCCCCCN(C)Cc1ccc(Br)cc1N3` [JNJ-26483327], the Kd (at Glycine--tRNA ligase; at Adenosine kinase; in test [1]; at Midasin; in test [2]; in test [3]) was > 30 µM (inactive) in each case. The Kd in test [4], in [5] and in test [6] was > 30 µM (inactive) throughout.

For the compound `C=CC(=O)Nc1cccc(Nc2nc(Nc3ccc(N4CCN(C(C)=O)CC4)cc3OC)ncc2C(F)(F)F)c1` [ROCILETINIB], the Kd (at Glycine--tRNA ligase; at Adenosine kinase; in test [1]; on Midasin; in test [2]; in [3]) was > 30 µM (inactive) each time. Moreover, the Kd in test [4], in test [5] and in test [6] was > 30 µM (inactive) throughout.

In the case of `O=S(=O)(c1cccc2cnccc12)N1CCCNCC1` [FASUDIL], the Kd (on Glycine--tRNA ligase; at Adenosine kinase; on Midasin; in test [2]; in test [3]; in [7]) was > 30 µM (inactive) in each case. In addition, the Kd in [5] and in [6] was > 30 µM (inactive) each time.

On to `Cc1ccc(C(=O)Nc2ccc(Oc3cc4cnn(C)c4cc3-c3cn[nH]c3)c(F)c2)c(=O)n1-c1ccc(F)cc1` [MERESTINIB], for which the Kd (at Glycine--tRNA ligase; at Adenosine kinase; in [1]; at Midasin; in test [2]; in test [3]) was > 30 µM (inactive) in each case. The Kd in test [4], in test [5] and in [6] was > 30 µM (inactive) throughout.

Turning to `CNC(=O)c1cc(COc2nnc(Nc3ccc(Cl)cc3)c3ccoc23)ccn1` [TELATINIB], the Kd (at Glycine--tRNA ligase; on Adenosine kinase; in test [1]; in test [2]; in [3]; in [7]) was > 30 µM (inactive) each time. Also, the Kd in test [4], in test [5] and in test [6] was > 30 µM (inactive) each time.

Turning to `CC(C)CC(=O)Nc1[nH]nc2c1CN(C(=O)C1CCN(C)CC1)C2(C)C` [PHA-793887], the Kd was > 30 µM (inactive) at Glycine--tRNA ligase; > 30 µM (inactive) at Adenosine kinase; > 30 µM (inactive) in test [1]; > 30 µM (inactive) at Midasin; 0.264 µM (active) in test [2]; > 30 µM (inactive) in [7]. In addition, the Kd in test [5] and in test [6] was > 30 µM (inactive) throughout.
